The values that follow come from patent US7135581B2, “Antiangiogenic agents” (Entremed, Inc., priority 2000, dated 2006).

Where two headings read alike, the source gives them in different places.

Assay [1] has as its system HUVEC and MDA-MB-231 cells. Put plainly: in vitro antiproliferative screening, endothelial versus tumor cells. It is filed as cell-based, human. Conditions: for antiproliferative activity in vitro (in words): cell line not specified; for difference between inhibition of tumor cells and of endothelial cell proliferation (selectivity): MDA-MB-231 versus HUVEC. An excerpt:
Compounds with no chain or with variable methylene chain lengths (1–4) were synthesized by replacing hydroxyl group at position-17 of D-ring of 2ME2 to block estrone formation or glucuronation. Similarly several analogs of 17-deoxyestrone with modification at position-2 were synthesized to block the both glucuronation and hydrolysis of the methoxy group to the hydroxyl. For these analogs data will be presented on the synthesis and preliminary in vitro screening in human umbilical vein endothelial cells (HUVEC) and breast cancer tumor MDA-MB-231 cells for antiproliferative activity, and in MCF-7 tumor cancer cells for estrogenic activity.
In order to assess the biological activity of modifications at position 16, the anti-proliferative activity of these analogs was evaluated on human umbilical vein endothelial cells (HUVEC) and breast carcinoma cell line, MDA-MB-231 as models for the anti-angiogenic and anti-tumor activity, respectively.

Assay [2] concerns MDA-MB-231 human breast carcinoma cells. In words: MDA-MB-231 in vitro cellular proliferation inhibition (BrdU). The format is cell-based. The protocol:
MDA-MB-231 human breast carcinoma cells were grown in DMEM containing 10% FCS (Hyclone Laboratories, Logan Utah) and supplemented with 2 mM L-Glutamine, 100 units/ml penicillin, 100 μg/ml streptomycin (Irvine Scientific, Santa Anna, Calif.).
MDA-MB-231 cells were plated at 5000 cells/ml in 96-well plates. After allowing the cells to attach overnight, the appropriate fresh media were applied containing differing concentrations of 2-ME2 or derivatives thereof, as described below. Drug was dissolved in DMSO (Sigma, St. Louis, Mo.) and added to the wells in a volume of 200 μl. Cells were incubated for two days at 37° C.; at 32 h BrdU was added. BrdU cell proliferation assay (a nucleotide analogue that is incorporated into DNA) was performed as described by the manufacturer (Roche). Each condition was prepared in triplicate and the experiments were carried out a minimum of two times. Results presented are means +/− SE.

The next assay has as its system HUVEC cells. In words: HUVEC in vitro cellular proliferation inhibition (BrdU, bFGF). It is filed as cell-based, human. The protocol:
HUVEC cells were grown in EGM (Clonetics).
HUVEC cells were plated at 5000 cells/ml in 96-well plates. After allowing the cells to attach overnight, the cells were washed with PBS and incubated in the absence of growth factor for 24 h (EBM, 2% FCS, Clonetics). Cells were treated with increasing concentrations of drug in EBM containing 2% FCS and 10 ng/ml bFGF for 48 h at 37° C. Drug preparation, volumes added and BrdU proliferation assay were performed as indicated above.
2-Methoxyestradiol is a potent anti-angiogenic and anti-tumor agent. In order to assess the biological activity of modifications at position 16, the anti-proliferative activity of these analogs was evaluated on human umbilical vein endothelial cells (HUVEC) and breast carcinoma cell line, MDA-MB-231 as models for the anti-angiogenic and anti-tumor activity, respectively.

Assay [3] deals with vascular endothelial cell proliferation. Conditions: cited from earlier work.
The subject of the next assay is MCF7 cells. Put plainly: MCF7 estrogen-dependent proliferation assay (cell counting). The format is cell-based. Conditions: for MCF7 Fold stimulation: estrogen-dependent proliferation. On the procedure: MCF7 cells, an estrogen dependent breast carcinoma cell line, were maintained in DMEM/F12 (1:1) containing 10% (v/v) fetal bovine serum (Hyclone Laboratories, Logan, Utah) and 1×antibiotic-antimytotic. MCF7 cells were used between passage 60 and passage 90. For MCF7 estrogen-dependent proliferation assay the cells were seeded in complete media at 20–30,000 cells/well in a 24 well plate. After allowing the cells to adhere overnight the seeding density was determined by cell counts. Cells were washed with PBS (37° C.) and starved by placing them in IMEM-phenol red free media containing 2% charcoal-dextran fetal bovine-stripped serum (Georgetown University) and 1×antibiotic-antimitotic. After 3 days of starvation, cells were treated with or without increasing concentrations of compounds, replacing the media every 2–3 days and counted after 8 or 10 days of treatment. Proliferation was measured by cell counting using a Coulter Z1 cell counter (Coulter Corporation, Hialeah, Fla.). Each condition was done in triplicate.

Assay [4] has as its system chick embryo chorioallantoic membrane. Put plainly: chick embryo chorioallantoic membrane (CAM) assay. The format is in vivo. The settings on record: 100 μg disk, after 48 hours. The protocol: Anti-proliferative activity is evaluated in situ by testing the ability of an improved estradiol derivative to inhibit the proliferation of new blood vessel cells (angiogenesis). A suitable assay is the chick embryo chorioallantoic membrane (CAM) assay described by Crum et al. Science 230:1375 (1985). See also, U.S. Pat. No. 5,001,116, hereby incorporated by reference, which describes the CAM assay. Briefly, fertilized chick embryos are removed from their shell on day 3 or 4, and a methylcellulose disc containing the drug is implanted on the chorioallantoic membrane. The embryos are examined 48 hours later and, if a clear avascular zone appears around the methylcellulose disc, the diameter of that zone is measured.

[5] abbreviates: Table 4, dehydrogenated/substituted 2ME2 derivatives.
[6] abbreviates: Table 4, dehydrogenated/substituted 2ME2 derivatives, read-out: MDA-MB-231 (IC50 μM).
[7] abbreviates: Homo sapiens, HUVEC, Table 2, 2 substituted E2 derivatives.
Setting [8] is: Homo sapiens, MDA-MB-231, Table 2, 2 substituted E2 derivatives, read-out: MDA-MB-231 (IC50 μM).

For the compound `COc1cc2c(cc1O)CC[C@@H]1[C@@H]2CC[C@]2(C)CCC[C@@H]12` [Table 1, Entry 3, 2-methoxyestra-1,3,5(10)-triene-3-ol], the results for the “antiproliferative activity in vitro (in words)” value in assay [1] (listed as 2-Methoxy-17-deoxyestrone) and in assay [1] (listed as dehydroxy derivative) were “equal or better antiproliferative activity than 2ME2” and “in vitro profile analogous to 2-methoxyestradiol”, respectively.

With `C[C@]12CC[C@@H]3c4cc(N=[N+]=[N-])c(O)cc4CC[C@H]3[C@@H]1CC[C@@H]2O` [Table 2, Entry 17, 2-Azidoestra1,3,5(10)-triene-3,17β-diol], the “antiproliferative activity in vitro (in words)” value in assay [1] is reported as “retained considerable antiproliferative activity”. Further, in assay [2] (Homo sapiens, MDA-MB-231, read-out: MDA-MB-231 (IC50 μM)), the IC50 (as a rule, the concentration that inhibits the measured activity by half) stood at 13.3 µM.

On to `CC(=O)c1cc2c(cc1O)CC[C@@H]1[C@@H]2CC[C@]2(C)[C@@H](O)CC[C@@H]12` [Table 2, Entry 2, 2-acetylestra-1,3,5(10)-triene-3,17β-diol], for which the “antiproliferative activity in HUVEC / endothelial cells (in words)” value with HUVEC cells is “poor activity”. In addition, the “activity in breast tumor MDA-MB-231 cells (in words)” value in assay [2] is “good activity”.

With `COc1cc2c(cc1O)CC[C@@H]1[C@@H]2CC[C@]2(C)[C@@H](O)[C@@H](C)C[C@@H]12` [Table 3, Entry 3, 2-methoxy-16β-methylestra-1,3,5(10)-triene-3,17β-diol], the “drop in activity in MDA-MB-231 compared to 2-methoxyestradiol” value in assay [2] is listed as “about 5 fold”.

For `COc1cc2c(cc1OC(C)=O)CCC1C2CC[C@@]2(C)C1CC[C@@H]2OC(C)=O` (stereo partly drawn) [Entry 6], the IC50 worked out at 3.6 ± 2 µM in the assay on HUVEC cells (Homo sapiens, HUVEC, Table 1, 17 substituted 2ME2 derivatives) and 0.59 ± 0.15 µM in assay [2] (Homo sapiens, MDA-MB-231, Table 1, 17 substituted 2ME2 derivatives, means +/− SE, read-out: MDA-MB-231 (IC50 μM)).

For `CC[C@H]1CC[C@H]2[C@@H]3CCc4cc(O)c(OC)cc4[C@H]3CC[C@]12C` [Table 1, Entry 13, 2-methoxy-17β-ethylestra-1,3,5(10)-triene-3-ol], in assay [1], the “antiproliferative activity in vitro (in words)” value is on record as “equal or better antiproliferative activity than 2ME2”.

“16β-(hydroxymethyl)estra-1,3,5(10)-triene-3,17β-diol [Table 3, Entry 6]”: the “difference between inhibition of tumor cells and of endothelial cell proliferation (selectivity)” value in assay [1] stood at 10 fold.

With `CCC[C@@H]1C[C@H]2[C@@H]3CCc4cc(O)c(OC)cc4[C@H]3CC[C@]2(C)[C@H]1O` [Table 3, Entry 7, 2-methoxy-16α-propaneestra-1,3,5(10)-triene-3,17β-diol], the “antiproliferative activity in HUVEC / endothelial cells (in words)” value with HUVEC cells is on record as “good activity”. In assay [1], the “difference between inhibition of tumor cells and of endothelial cell proliferation (selectivity)” value is on record as “more than ten-fold less active”.

`COc1cc2c(cc1O)CC[C@@H]1[C@@H]2CC[C@]2(C)[C@@H](O)[C@H](C)C[C@@H]12` [Table 3, Entry 2, 2-methoxy-16α-methylestra-1,3,5(10)-triene-3,17β-diol]: in assay [2], the “activity in MDA-MB-231 compared to 2-methoxyestradiol (in words)” value was “better activity than 2-methoxyestradiol”.

Take `CCC1C[C@H]2[C@@H]3CCc4cc(O)c(OC)cc4[C@H]3CC[C@]2(C)[C@H]1O` (stereo partly drawn) [Table 3, Entry 4, 2-methoxy-16-ethylestra-1,3,5,(10)-triene-3,17β-diol]: in the assay on HUVEC cells, the “inhibition of HUVEC cell proliferation compared to 2-methoxyestradiol (in words)” value was “about equipotent to 2-methoxyestradiol”. In assay [2], the “drop in activity in MDA-MB-231 compared to 2-methoxyestradiol” value was ~3 fold.

For the compound `COc1cc2c(cc1O)CC[C@@H]1C2=CC[C@]2(C)[C@@H](O)CC[C@@H]12` [2-methoxy-estra-1,3,5(10)9(11)-tetraene-3,17β-diol], the values for the IC50 (in the assay on HUVEC cells (setting [5]); in assay [2] (setting [6])) were 0.25 µM and 0.45 µM, respectively.

For `COc1cc2c(cc1O)CC[C@@H]1[C@@H]2CC[C@]2(C)[C@@H](C)CC[C@@H]12` [Table 1, Entry 8, 2-methoxy-17β-methylestra-1,3,5(10)-triene-3-ol], the “antiproliferative activity in vitro (in words)” value in assay [1] was “equal or better antiproliferative activity than 2ME2”.

Regarding `C[C@@]12CCC[C@H]1[C@@H]1CCc3cc(O)ccc3[C@H]1CC2` [Table 2, Entry 19, estra-1,3,5(10)-triene-3-ol], the figures for the IC50 (in the assay with HUVEC cells (setting [7]); in assay [2] (setting [8])) were 8.66 µM and 33.9 µM, respectively.

For `C[C@]12CC[C@@H]3c4cc(CO)c(O)cc4CC[C@H]3[C@@H]1CC[C@@H]2O` [Table 2, Entry 4, 2-(hydroxymethyl)estra-1,3,5(10)-triene-3,17β-diol], the “activity in breast tumor MDA-MB-231 cells (in words)” value in assay [2] is listed as “poor activity”.

Turning to `C[C@]12CC[C@@H]3c4cc(C=O)c(O)cc4CC[C@H]3[C@@H]1CC[C@@H]2O` [Table 2, Entry 3, 2-formylestra-1,3,5(10)-triene-3,17β-diol], in assay [2], the “activity in breast tumor MDA-MB-231 cells (in words)” value is given as “poor activity”.

For `CO[C@@H]1[C@H](OC(=O)NC(=O)CCl)CC[C@]2(CO2)[C@H]1[C@@]1(C)O[C@@H]1CC=C(C)C` [AGM-1470], the “half-maximal inhibition of vascular endothelial cell proliferation at lower concentration than tumor cell proliferation” value in assay [3] was 4 logs.

For `COc1cc2c(cc1O)CC[C@@H]1[C@@H]2CC[C@]2(C)[C@@H](O)CC[C@@H]12` [2-Methoxyestradiol, reference compound], the IC50 in the assay on HUVEC cells (Table 1, 17 substituted 2ME2 derivatives) is 0.66 ± 0.02 µM; in the assay on HUVEC cells (Table 2, 2 substituted E2 derivatives), 0.66 µM; in the assay with HUVEC cells (Table 3, 16 substituted 2ME2 derivatives), 0.66 ± 0.02 µM; in the assay on HUVEC cells (setting [5]) it was 0.66 ± 0.02 µM; in assay [2] (Table 1, 17 substituted 2ME2 derivatives, means +/− SE, read-out: MDA-MB-231 (IC50 μM)), 0.5 ± 0.05 µM; in assay [2] (Table 2, 2 substituted E2 derivatives, read-out: MDA-MB-231 (IC50 μM)), 0.5 µM. The IC50 in assay [2] (Table 3, 16 substituted 2ME2 derivatives, read-out: MDA-MB-231 (IC50 μM)) came out at 0.5 ± 0.05 µM; in assay [2] (setting [6]) it was 0.5 ± 0.05 µM. For the same compound, the “estrogenic activity, proliferation in estrogen dependant MCF-7 cells (in words)” value in the assay with MCF7 cells is given as “not estrogenic over a wide range of concentrations”. Further, the “MCF7 Fold stimulation” value in the assay on MCF7 cells (Table 1), with MCF7 cells (Table 2) and with MCF7 cells (Table 3) was 1.75 in each case. Moreover, the “inhibition of cell mitosis and growth of new blood vessels” value in assay [4] was “inhibit cell mitosis and the growth of new blood vessels”.

For the compound `CCOc1cc2c(cc1O)CC[C@@H]1[C@@H]2CC[C@]2(C)[C@@H](O)CC[C@@H]12` [Table 2, Entry 18, 2-ethoxyestra-1,3,5(10)-triene3,17β-diol], the results for the 50% inhibitory concentration (IC50) (in the assay with HUVEC cells (setting [7]); in assay [2] (setting [8])) were 0.06 µM and 0.179 µM, respectively.
